Measurements as given in patent publication US8486897B2, “C-aryl glycoside compounds for the treatment of diabetes and obesity” (TFCHEM, priority 2008, dated 2013).

How the values were obtained:
[1] = target: T1, Human SGLT1 (Homo sapiens, UniProt P13866); assay: Cell-based assay for inhibition of uptake of 14C-methyl-α-D-glucopyranoside (14C-AMG) in CHO-K1 cells stably expressing human SGLT1; conditions: compound at 100 μM, 14C-AMG uptake, 1 hour at 37° C.
T1 construct: pCMV6 vector containing the full length human SGLT1 gene
T1 sequence (P13866 1-664): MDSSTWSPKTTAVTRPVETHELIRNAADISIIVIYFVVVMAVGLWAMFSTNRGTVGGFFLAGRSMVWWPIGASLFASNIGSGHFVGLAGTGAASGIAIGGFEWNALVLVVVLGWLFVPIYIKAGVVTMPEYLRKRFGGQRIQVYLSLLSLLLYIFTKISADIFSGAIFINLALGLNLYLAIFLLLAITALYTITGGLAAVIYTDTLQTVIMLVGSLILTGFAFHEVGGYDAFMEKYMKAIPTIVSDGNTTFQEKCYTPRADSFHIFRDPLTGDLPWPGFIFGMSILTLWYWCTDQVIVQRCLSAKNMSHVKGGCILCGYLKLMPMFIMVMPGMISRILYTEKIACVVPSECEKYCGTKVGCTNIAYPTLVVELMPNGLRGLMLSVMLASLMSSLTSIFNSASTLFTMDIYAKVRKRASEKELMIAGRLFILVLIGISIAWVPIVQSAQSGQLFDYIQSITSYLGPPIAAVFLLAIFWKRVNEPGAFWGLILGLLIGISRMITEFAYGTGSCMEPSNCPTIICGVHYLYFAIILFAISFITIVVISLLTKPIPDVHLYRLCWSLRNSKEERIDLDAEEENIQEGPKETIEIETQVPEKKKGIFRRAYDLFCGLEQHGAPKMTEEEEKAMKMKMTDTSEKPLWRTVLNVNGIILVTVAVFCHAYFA
From the text: (§1) 1. Preparation of Human SGLT1 and Human SGLT2 Expression Vectors:
• Human SGLT1 (Genbank M24847) cDNA was cloned from a pCMV6 vector containing the full length human SGLT1 gene (Origene NM 000343, Cat. #: RC221312) and Human SGLT2 (Genbank M95549) cDNA was cloned from a pCMV6 vector containing the full length human SGLT2 gene (Origene NM_003041, Cat. #: RC224822). The full cDNAs were subcloned independently into mammalian cell expression plasmid pSPI1 and sequenced to verify the integrity of the construct. 2. Preparation of CHO-K1 Cells Stably Expressing Human SGLT1 and Human SGLT2: • Transfection of CHO-K^1 cells was performed using 2.5 ug of pSPI1-SGLT1 or pSPI1-SGLT2 plasmid with about 6 ul of Lipofectamin 2000 (Invitrogen, Cat. #: 11668-019) in about 1.5×10^5 CHO-K1 cells using 12-well cell culture plate (Becton Dickinson, Cat. #: 353003) in the presence of DMEM medium (Dulbecco's Modified Eagle Medium) (Gibco, Cat. #: 11885-092) containing 10% FBS (Sigma, Cat. #: F1051-500mL). […] Sodium-dependent D-glucose transport was determined by measuring the uptake of 14C-methyl-α-D-glucopyranoside (14C-AMG) with a specific activity of 250-350mCi (9.25-13.0 GBq)/mmol (PerkinElmer, Cat. #: NEC 659250UC). […] Scintillation cocktail (1004) was added and the 14C-AMG radioisotope counted in a MicroBeta Trilux (PerkinElmer).

[2] = target: T2, Human SGLT2 (Homo sapiens, UniProt P31639); assay: Cell-based assay for inhibition of uptake of 14C-methyl-α-D-glucopyranoside (14C-AMG) in CHO-K1 cells stably expressing human SGLT2; conditions: 14C-AMG uptake, 1 hour at 37° C.; for inhibition at 10 µM: compound at 10 μM; for inhibition at 100 µM: compound at 100 μM
T2 construct: pCMV6 vector containing the full length human SGLT2 gene
T2 sequence (P31639 1-672): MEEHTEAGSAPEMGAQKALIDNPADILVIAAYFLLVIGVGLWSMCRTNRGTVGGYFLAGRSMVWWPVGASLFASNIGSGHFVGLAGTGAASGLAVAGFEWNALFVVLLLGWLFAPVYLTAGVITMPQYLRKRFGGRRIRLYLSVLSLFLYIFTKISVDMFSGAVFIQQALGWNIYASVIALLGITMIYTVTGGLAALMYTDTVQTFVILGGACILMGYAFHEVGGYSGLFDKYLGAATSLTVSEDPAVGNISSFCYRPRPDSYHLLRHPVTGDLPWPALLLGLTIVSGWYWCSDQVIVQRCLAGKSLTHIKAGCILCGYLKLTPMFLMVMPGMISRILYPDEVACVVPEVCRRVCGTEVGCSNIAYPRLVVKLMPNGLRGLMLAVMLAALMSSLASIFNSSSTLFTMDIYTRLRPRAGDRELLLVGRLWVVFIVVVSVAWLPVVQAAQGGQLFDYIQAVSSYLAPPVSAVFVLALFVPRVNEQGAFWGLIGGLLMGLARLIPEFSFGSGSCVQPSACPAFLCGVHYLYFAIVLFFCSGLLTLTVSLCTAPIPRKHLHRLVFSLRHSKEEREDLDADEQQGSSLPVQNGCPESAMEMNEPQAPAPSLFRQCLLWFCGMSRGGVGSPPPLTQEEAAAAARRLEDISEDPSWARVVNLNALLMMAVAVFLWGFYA
From the text: The compounds of the invention have been tested for their ability to inhibit Human Sodium Glucose Co-Transporter 2 (Human SGLT2) according to the following protocol:
as §1
• Human SGLT1 (Genbank M24847) cDNA was cloned from a pCMV6 vector containing the full length human SGLT1 gene (Origene NM 000343, Cat. #: RC221312) and Human SGLT2 (Genbank M95549) cDNA was cloned from a pCMV6 vector containing the full length human SGLT2 gene (Origene NM_003041, Cat. #: RC224822). The full cDNAs were subcloned independently into mammalian cell expression plasmid pSPI1 and sequenced to verify the integrity of the construct. 2. Preparation of CHO-K1 Cells Stably Expressing Human SGLT1 and Human SGLT2: • Transfection of CHO-K^1 cells was performed using 2.5 ug of pSPI1-SGLT1 or pSPI1-SGLT2 plasmid with about 6 ul of Lipofectamin 2000 (Invitrogen, Cat. #: 11668-019) in about 1.5×10^5 CHO-K1 cells using 12-well cell culture plate (Becton Dickinson, Cat. #: 353003) in the presence of DMEM medium (Dulbecco's Modified Eagle Medium) (Gibco, Cat. #: 11885-092) containing 10% FBS (Sigma, Cat. #: F1051-500mL). Transfectants were then selected in the presence of the antibiotic G418 (GIBCO, Cat. #: 11811-031) at final concentration of 750 ug/ml. Individual clones for both SGLT1 and SGLT2 were then characterized using the functional cell-based assay described below. 3. Cell-Based Assay for Inhibition of Uptake of methyl-α-D-glucopyranoside by Human SGLT1 and Human SGLT2: • Selected cell lines stably expressing human SGLT1 or human SGLT2 were then used for functional analysis of sodium dependent glucose uptake. Sodium-dependent D-glucose transport was determined by measuring the uptake of 14C-methyl-α-D-glucopyranoside (14C-AMG) with a specific activity of 250-350mCi (9.25-13.0 GBq)/mmol (PerkinElmer, Cat. #: NEC 659250UC). The assay buffer used to assess sodium-dependent D-glucose transport was Krebs-Ringer-Henseleit (KRH) solution containing 4.7 mM KCl, 1.2 mM MgCl2, 2.2 mM CaCl2, 10 mM Hepes pH 7.4 with Tris (Sigma). For sodium (Na^+) conditions the Assay Buffer containing 120 mM NaCl (Na^+) was used to assess sodium-dependent D-glucose transport (KRH-Na^+). For sodium free conditions, KRH solution containing 120 mM N-methyl-glucamine (NMG) instead of NaCl (Na^+) was used to assess sodium-independent D-glucose transport (KRH-NMG). All buffer chemicals were purchased from Sigma. • In brief, the cells were plated at a density of 40,000 cells per well in a 96-well plate in DMEM media and allowed to grow for 24 hours. Cells were subsequently washed twice (2×100 μL) with KRH buffer cells containing NMG. […] Scintillation cocktail (1004) was added and the 14C-AMG radioisotope counted in a MicroBeta Trilux (PerkinElmer).

| inhibition at 100 µM [1] [%] | inhibition at 10 µM [2] [%] | inhibition at 100 µM [2] [%] | Compound |
| --- | --- | --- | --- |
| 48 | 40 | 56 | CCc1ccc(Cc2ccccc2C(F)(F)[C@@H]2O[C@H](CO)[C@@H](O)[C@H](O)[C@H]2O)cc1 [Compound 104] |
| 46 | 30 | 79 | OC[C@H]1O[C@@H](C(F)(F)c2ccccc2)[C@H](O)[C@@H](O)[C@@H]1O [Compound 100] |
